What was measured:
Type in all cases: cell-based
hACKR3-NLuc = molecular target: T1, hACKR3-NLuc (Homo sapiens, UniProt P25106); test: Bystander BRET detection of ACKR3 membrane localization; conditions: 1 μM VUF16840
T1 construct: expressed in transfected cells; host or cells: HEK293T

[1] = system: panel of 19 human chemokine receptors; test: NanoBiT-complementation based chemokine receptor screen (agonist and antagonist mode)
Experimental: The pharmacological modulation of all chemokine receptors by VUF16840 was performed according to an established method.[8]^,[23]^,[39] Briefly, β-arrestin2 recruitment to chemokine receptors in response to 1 μM VUF16840 or positive control chemokines was monitored by NanoLuc complementation assay (NanoBiT, Promega). Four hours after transfection, cells were harvested, incubated for 25 minutes at 37 °C with furimazine and distributed into a white 96-well plates (1 × 10^5 cells per well). β-Arrestin2 recruitment was then detected for 20 minutes upon treatment with 1 μM VUF16840 (or increasing concentrations ligand for experiments with CC chemokine receptor [CCR3]) using the Mithras LB940 luminometer (Berthold Technologies). To evaluate the antagonist properties of VUF16840, full agonists of each receptor were added after the 20-minute incubation with VUF16840. Signal from wells treated with full agonist only was defined as 100% activity and signals from wells treated with no agonist were used to set 0% activity. […]
Fig. 4 Modulation of a panel of chemokine receptors by VUF16840. β-Arrestin2 recruitment toward a full panel of 19 chemokine receptor was measured using a NLuc complementation assay in HEK293T cells. […]

hCXCR4 = molecular target: T2, hCXCR4 (Homo sapiens, UniProt P61073); test: BRET β-arrestin2 recruitment to hCXCR4 in HEK293T cells; conditions: in the presence or absence of 100 nM CXCL12
T2 construct: The CXCR4-Rluc8 fusion protein corresponds to CXCR4 isoform b (NCBI: NM_003467.2); expressed in transfected cells; host or cells: HEK293T
T2 sequence (P61073 whole entry, the tested form may be a part, canonical isoform): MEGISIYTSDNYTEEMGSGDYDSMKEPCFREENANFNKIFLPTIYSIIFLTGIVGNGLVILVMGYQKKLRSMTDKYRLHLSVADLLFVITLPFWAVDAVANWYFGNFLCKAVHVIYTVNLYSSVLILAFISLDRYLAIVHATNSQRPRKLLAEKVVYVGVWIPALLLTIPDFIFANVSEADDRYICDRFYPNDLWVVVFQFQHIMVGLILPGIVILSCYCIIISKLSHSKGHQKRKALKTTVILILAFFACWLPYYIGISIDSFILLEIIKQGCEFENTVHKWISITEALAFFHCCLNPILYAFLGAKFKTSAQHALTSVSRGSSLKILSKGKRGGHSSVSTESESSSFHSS
From the text: The NLuc-ACKR3 plasmid was a kind gift from Prof Hill (Nottingham University, Nottingham, United Kingdom),[31] […] The mVenus-CAAX and the hACKR3-NLuc constructs have been described by Zarca et al.[23] The sequence of the used ACKR3 constructs corresponds to National Center for Biotechnology Information (NCBI) database entry NM_020311.3. Radioligand binding studies used a mammalian expression vector pcDEF3 encoding ACKR3, N-terminally fused to an HA-tag and C-terminally fused to a triple Alanine tag (NotI). This construct was the template for the C-terminal ACKR3 fusion with the luminescent Rluc8 protein (NCBI: EF446136.1). The CXCR4-Rluc8 fusion protein corresponds to CXCR4 isoform b (NCBI: NM_003467.2) fused at the C-terminus with a triple Alanine linker (NotI) before the Rluc8 protein.
For 1·10^6 HEK293T cells, a transfection mix consisting of 2 μg plasmid DNA, 12 μg linear PEI in a total volume of 200 μL 150 mM NaCl was made and thoroughly vortexed. The transfection mix was incubated for 15 minutes and consequently added to a cell suspension with a final concentration of 3·10^5 cells/mL. […]
Fig. 2 VUF16840 inhibits constitutive as well as agonist induced β-arrestin2 recruitment to ACKR3. […] Subsequently, β-arrestin2 recruitment to hACKR3 was detected by NanoBiT complementation. […]

T1 sequence (P25106 whole entry): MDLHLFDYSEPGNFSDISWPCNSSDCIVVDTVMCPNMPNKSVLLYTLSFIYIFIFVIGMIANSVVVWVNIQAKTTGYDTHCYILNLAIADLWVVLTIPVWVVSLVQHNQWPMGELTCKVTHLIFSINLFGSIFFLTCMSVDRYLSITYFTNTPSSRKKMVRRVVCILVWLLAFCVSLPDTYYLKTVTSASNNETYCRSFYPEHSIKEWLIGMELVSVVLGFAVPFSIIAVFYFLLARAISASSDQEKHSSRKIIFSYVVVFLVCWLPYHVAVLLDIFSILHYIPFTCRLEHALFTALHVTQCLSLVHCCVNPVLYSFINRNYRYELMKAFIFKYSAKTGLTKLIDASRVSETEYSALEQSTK

- effect on bystander BRET signal hACKR3-NLuc / membrane-targeted mNeonGreen (cell surface localization) (hACKR3-NLuc): increased the bystander BRET signals
- effect on β-arrestin2 recruitment to CXCR4 (hCXCR4): did not affect
Structure (SMILES): COc1ccccc1CCNC(=O)C1CN(C2CCCCC2)CCC1NC(=O)c1cc(-c2ccc(F)cc2F)on1 (stereo not shown) [VUF16840]
- agonist mode screen, modulation of β-arrestin2 recruitment ([1]; 1 μM VUF16840): only modulated β-arrestin2 recruitment to hACKR3 and hCCR3
- antagonist-mode inhibition of any tested chemokine receptor ([1]; 1 μM VUF16840 coincubated with respective endogenous agonist): ≤ 50%

— article PMC12799421, “Inhibition of constitutive activity of the atypical chemokine receptor 3 by the small-molecule inverse agonist VUF16840” (Molecular Pharmacology, 2025)
